What was measured:
Italian ryegrass [1] = experiment: Test Example 5: herbicidal effect by foliage application, plastic box (Table 20, symbol K); type: in vivo, Italian ryegrass (Lolium multiflorum)
Summary of the method: (§1)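 Plants sown in sterilized diluvial soil and grown 14 days in a greenhouse at 25° C to 30° C, then sprayed on the foliage with the compound's emulsion diluted in water to a predetermined herbicide amount. Injury to weeds and crops scored three weeks after application on a visual rating scale.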

green foxtail [2] = experiment: Test Example 5: herbicidal effect by foliage application, plastic box (Table 20, symbol G); type: in vivo, green foxtail (Setaria viridis)
Summary of the method: as §1

rice flat sedge = experiment: Test Example 3: herbicidal effect by foliage application, Wagner pot (Table 18, symbol E); type: in vivo, rice flat sedge (Cyperus iria); conditions: 320 g/ha
Summary of the method: (§2)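 Plants were sown in alluvial soil held under 0.1–0.5 cm standing water and grown 14 days in a greenhouse at 25–30 °C. An emulsifiable formulation, water-diluted to the set dose, was then sprayed onto the foliage, and effects were scored three weeks later using previously defined criteria.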

blackgrass [3] = experiment: Test Example 5: herbicidal effect by foliage application, plastic box (Table 20, symbol J); type: in vivo, blackgrass (Alopecurus myosuroides)
Summary of the method: as §1

late watergrass = experiment: Test Example 1: herbicidal activity, application before weed generation under submerged conditions (Table 16, symbol A); type: in vivo, late watergrass (Echinochloa oryzicola)
Summary of the method: (§3)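 Alluvial soil was flooded to 4 cm depth, weed seeds were sown mixed and 2.5-leaf rice seedlings were transplanted. On sowing day, the compound's emulsion, diluted in water to a set dose, was applied to the water surface. Plants grew at 25–30 °C and were scored 0–5 after three weeks.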

lambsquarters [4] = experiment: Test Example 5: herbicidal effect by foliage application, plastic box (Table 20, symbol O); type: in vivo, lambsquarters (Chenopodium album)
Summary of the method: as §1

barnyard grass [5] = experiment: Test Example 4: herbicidal effect by soil treatment (Table 19, symbol H); type: in vivo, barnyard grass (Echinochloa crus-galli)
Summary of the method: (§4)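 Three weeks of greenhouse growth at 25° C. to 30° C. followed a uniform surface spray of water-diluted emulsion at a predetermined herbicide amount. Seeds had been sown beforehand under about 1.5 cm of sterilized diluvial soil. Grading followed criteria set out in an earlier test.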

wild oat [6] = experiment: Test Example 4: herbicidal effect by soil treatment (Table 19, symbol I); type: in vivo, wild oat (Avena fatua)
Summary of the method: as §4

wild oat [7] = experiment: Test Example 5: herbicidal effect by foliage application, plastic box (Table 20, symbol I); type: in vivo, wild oat (Avena fatua)
Summary of the method: as §1

velvetleaf [8] = experiment: Test Example 5: herbicidal effect by foliage application, plastic box (Table 20, symbol M); type: in vivo, velvetleaf (Abutilon theophrasti)
Summary of the method: as §1

blackgrass [9] = experiment: Test Example 4: herbicidal effect by soil treatment (Table 19, symbol J); type: in vivo, blackgrass (Alopecurus myosuroides); conditions: AAH 320 g/ha
Summary of the method: as §4

oval-leafed pondweed = experiment: Test Example 1: herbicidal activity, application before weed generation under submerged conditions (Table 16, symbol C); type: in vivo, oval-leafed pondweed (Monochoria vaginalis)
Summary of the method: as §3

Italian ryegrass [10] = experiment: Test Example 4: herbicidal effect by soil treatment (Table 19, symbol K); type: in vivo, Italian ryegrass (Lolium multiflorum)
Summary of the method: as §4

redroot pigweed [11] = experiment: Test Example 4: herbicidal effect by soil treatment (Table 19, symbol N); type: in vivo, redroot pigweed (Amaranthus retroflexus)
Summary of the method: as §4

persian speedwell [12] = experiment: Test Example 5: herbicidal effect by foliage application, plastic box (Table 20, symbol R); type: in vivo, Persian speedwell (Veronica persica)
Summary of the method: as §1

barnyard grass [13] = experiment: Test Example 3: herbicidal effect by foliage application, Wagner pot (Table 18, symbol H); type: in vivo, barnyard grass (Echinochloa crus-galli); conditions: 320 g/ha
Summary of the method: as §2

green foxtail [14] = experiment: Test Example 4: herbicidal effect by soil treatment (Table 19, symbol G); type: in vivo, green foxtail (Setaria viridis)
Summary of the method: as §4

Japanese bulrush = experiment: Test Example 1: herbicidal activity, application before weed generation under submerged conditions (Table 16, symbol B); type: in vivo, Japanese bulrush (Schoenoplectus juncoides)
Summary of the method: as §3

windgrass [15] = experiment: Test Example 5: herbicidal effect by foliage application, plastic box (Table 20, symbol L); type: in vivo, windgrass (Apera spica-venti)
Summary of the method: as §1

Chinese sprangletop = experiment: Test Example 3: herbicidal effect by foliage application, Wagner pot (Table 18, symbol D); type: in vivo, chinese sprangletop (Leptochloa chinensis); conditions: 320 g/ha
Summary of the method: as §2

persian speedwell [16] = experiment: Test Example 4: herbicidal effect by soil treatment (Table 19, symbol R); type: in vivo, Persian speedwell (Veronica persica)
Summary of the method: as §4

velvetleaf [17] = experiment: Test Example 4: herbicidal effect by soil treatment (Table 19, symbol M); type: in vivo, velvetleaf (Abutilon theophrasti)
Summary of the method: as §4

windgrass [18] = experiment: Test Example 4: herbicidal effect by soil treatment (Table 19, symbol L); type: in vivo, windgrass (Apera spica-venti)
Summary of the method: as §4

southern crabgrass [19] = experiment: Test Example 4: herbicidal effect by soil treatment (Table 19, symbol F); type: in vivo, southern crabgrass (Digitaria ciliaris)
Summary of the method: as §4

barnyard grass [20] = experiment: Test Example 5: herbicidal effect by foliage application, plastic box (Table 20, symbol H); type: in vivo, barnyard grass (Echinochloa crus-galli)
Summary of the method: as §1

lambsquarters [21] = experiment: Test Example 4: herbicidal effect by soil treatment (Table 19, symbol O); type: in vivo, lambsquarters (Chenopodium album)
Summary of the method: as §4

southern crabgrass [22] = experiment: Test Example 5: herbicidal effect by foliage application, plastic box (Table 20, symbol F); type: in vivo, southern crabgrass (Digitaria ciliaris)
Summary of the method: as §1

chickweed [23] = experiment: Test Example 4: herbicidal effect by soil treatment (Table 19, symbol P); type: in vivo, common chickweed (Stellaria media); conditions: amount of applied herbicide 320 g/ha
Summary of the method: as §4

chickweed [24] = experiment: Test Example 5: herbicidal effect by foliage application, plastic box (Table 20, symbol P); type: in vivo, common chickweed (Stellaria media); conditions: amount of applied herbicide 320 g/ha; foliage application after 14-day growth; evaluated three weeks after application
Summary of the method: as §1

redroot pigweed [25] = experiment: Test Example 5: herbicidal effect by foliage application, plastic box (Table 20, symbol N); type: in vivo, redroot pigweed (Amaranthus retroflexus); conditions: amount of applied herbicide 320 g/ha; foliage application after 14-day growth; evaluated three weeks after application
Summary of the method: as §1

[26] = foliage application, 320 g/ha, 3 weeks after application
[27] = amount of applied herbicide 320 g/ha, foliage application after 14-day growth, evaluated three weeks after application
[28] = amount of applied herbicide 320 g/ha

## C=CCSCc1ccc(-c2sc3ccccc3c2-c2c(O)c(C)nn(C)c2=O)cc1 [1-245]
Italian ryegrass [1]; [26]
  effect on Italian ryegrass (K): 4 (Herbicidal rate of 70% or more and less than 90%)
Green foxtail [2]; [26]
  effect on green foxtail (G): 4 (Herbicidal rate of 70% or more and less than 90%)
Rice flat sedge
  herbicidal effect on E (rice flat sedge), rating 0-5: 3 (Herbicidal rate of 40% or more and less than 70%)
Blackgrass [3]; [26]
  effect on blackgrass (J): 3 (Herbicidal rate of 40% or more and less than 70%)
Late watergrass; 320 g/ha applied herbicide
  Herbicidal effect on A: late watergrass (grade 0-5): 3 (Herbicidal rate of 40% or more and less than 70%)
Lambsquarters [4]; [26]
  effect on lambsquarters (O): 5 (Herbicidal rate of 90% or more (almost completely withered))
Barnyard grass [5]; AAH 320 g/ha
  H: barnyard grass, herbicidal effect rating: 0 (Herbicidal rate of 5% or less (almost no effect))
Wild oat [6]; AAH 320 g/ha
  I: wild oat, herbicidal effect rating: 0 (Herbicidal rate of 5% or less (almost no effect))
Wild oat [7]; [26]
  effect on wild oat (I): 1 (Herbicidal rate of 5% or more and less than 20%)
Velvetleaf [8]; [26]
  effect on velvetleaf (M): 5 (Herbicidal rate of 90% or more (almost completely withered))
Blackgrass [9]
  J: blackgrass, herbicidal effect rating: 0 (Herbicidal rate of 5% or less (almost no effect))
oval-leafed pondweed; 320 g/ha applied herbicide
  Herbicidal effect on C: oval-leafed pondweed (grade 0-5): 0 (Herbicidal rate of 5% or less (almost no effect))
Italian ryegrass [10]; AAH 320 g/ha
  K: Italian ryegrass, herbicidal effect rating: 2 (Herbicidal rate of 20% or more and less than 40%)
Redroot pigweed [11]; AAH 320 g/ha
  N: redroot pigweed, herbicidal effect rating: 3 (Herbicidal rate of 40% or more and less than 70%)
Persian speedwell [12]; [26]
  effect on persian speedwell (R): 5 (Herbicidal rate of 90% or more (almost completely withered))
Barnyard grass [13]
  herbicidal effect on H (barnyard grass), rating 0-5: 5 (Herbicidal rate of 90% or more (almost completely withered))
Green foxtail [14]; AAH 320 g/ha
  G: green foxtail, herbicidal effect rating: 0 (Herbicidal rate of 5% or less (almost no effect))
Japanese bulrush; 320 g/ha applied herbicide
  Herbicidal effect on B: Japanese bulrush (grade 0-5): 3 (Herbicidal rate of 40% or more and less than 70%)
Windgrass [15]; [26]
  effect on windgrass (L): 4 (Herbicidal rate of 70% or more and less than 90%)
Chinese sprangletop
  herbicidal effect on D (Chinese sprangletop), rating 0-5: 3 (Herbicidal rate of 40% or more and less than 70%)
Persian speedwell [16]; AAH 320 g/ha
  R: persian speedwell, herbicidal effect rating: 4 (Herbicidal rate of 70% or more and less than 90%)
Velvetleaf [17]; AAH 320 g/ha
  M: velvetleaf, herbicidal effect rating: 0 (Herbicidal rate of 5% or less (almost no effect))
Windgrass [18]; AAH 320 g/ha
  L: windgrass, herbicidal effect rating: 0 (Herbicidal rate of 5% or less (almost no effect))
Southern crabgrass [19]; AAH 320 g/ha
  F: southern crabgrass, herbicidal effect rating: 0 (Herbicidal rate of 5% or less (almost no effect))
Barnyard grass [20]; [26]
  effect on barnyard grass (H): 5 (Herbicidal rate of 90% or more (almost completely withered))
Lambsquarters [21]; AAH 320 g/ha
  O: lambsquarters, herbicidal effect rating: 3 (Herbicidal rate of 40% or more and less than 70%)
Southern crabgrass [22]; [26]
  effect on southern crabgrass (F): 3 (Herbicidal rate of 40% or more and less than 70%)

## COCOc1ccccc1-c1sc2c(Cl)cccc2c1-c1c(O)c(C)nn(C)c1=O [4-083]
Italian ryegrass [1]; [27]
  Herbicidal effect by foliage application, K: Italian ryegrass: 0 (Herbicidal rate of 5% or less (almost no effect))
Green foxtail [2]; [27]
  Herbicidal effect by foliage application, G: green foxtail: 3 (Herbicidal rate of 40% or more and less than 70%)
Rice flat sedge
  herbicidal effect on rice flat sedge (E): 5 (Herbicidal rate of 90% or more (almost completely withered))
Blackgrass [3]; [27]
  Herbicidal effect by foliage application, J: blackgrass: 0 (Herbicidal rate of 5% or less (almost no effect))
Late watergrass; [28]
  Herbicidal effect, A: late watergrass: 3 (Herbicidal rate of 40% or more and less than 70%)
Lambsquarters [4]; [27]
  Herbicidal effect by foliage application, O: lambsquarters: 1 (Herbicidal rate of 5% or more and less than 20%)
Barnyard grass [5]; [28]
  Herbicidal effect by soil treatment, H: barnyard grass: 1 (Herbicidal rate of 5% or more and less than 20%)
Wild oat [6]; [28]
  Herbicidal effect by soil treatment, I: wild oat: 0 (Herbicidal rate of 5% or less (almost no effect))
Wild oat [7]; [27]
  Herbicidal effect by foliage application, I: wild oat: 0 (Herbicidal rate of 5% or less (almost no effect))
Chickweed [23]
  Herbicidal effect by soil treatment, P: chickweed: 3 (Herbicidal rate of 40% or more and less than 70%)
Velvetleaf [8]; [27]
  Herbicidal effect by foliage application, M: velvetleaf: 3 (Herbicidal rate of 40% or more and less than 70%)
oval-leafed pondweed; [28]
  Herbicidal effect, C: oval-leafed pondweed: 0 (Herbicidal rate of 5% or less (almost no effect))
Chickweed [24]
  Herbicidal effect by foliage application, P: chickweed: 5 (Herbicidal rate of 90% or more (almost completely withered))
Italian ryegrass [10]; [28]
  Herbicidal effect by soil treatment, K: Italian ryegrass: 0 (Herbicidal rate of 5% or less (almost no effect))
Redroot pigweed [11]; [28]
  Herbicidal effect by soil treatment, N: redroot pigweed: 3 (Herbicidal rate of 40% or more and less than 70%)
Persian speedwell [12]; [27]
  Herbicidal effect by foliage application, R: persian speedwell: 5 (Herbicidal rate of 90% or more (almost completely withered))
Barnyard grass [13]
  herbicidal effect on barnyard grass (H): 5 (Herbicidal rate of 90% or more (almost completely withered))
Green foxtail [14]; [28]
  Herbicidal effect by soil treatment, G: green foxtail: 0 (Herbicidal rate of 5% or less (almost no effect))
Japanese bulrush; [28]
  Herbicidal effect, B: Japanese bulrush: 0 (Herbicidal rate of 5% or less (almost no effect))
Windgrass [15]; [27]
  Herbicidal effect by foliage application, L: windgrass: 4 (Herbicidal rate of 70% or more and less than 90%)
Chinese sprangletop
  herbicidal effect on Chinese sprangletop (D): 4 (Herbicidal rate of 70% or more and less than 90%)
Persian speedwell [16]; [28]
  Herbicidal effect by soil treatment, R: persian speedwell: 3 (Herbicidal rate of 40% or more and less than 70%)
Velvetleaf [17]; [28]
  Herbicidal effect by soil treatment, M: velvetleaf: 1 (Herbicidal rate of 5% or more and less than 20%)
Windgrass [18]; [28]
  Herbicidal effect by soil treatment, L: windgrass: 0 (Herbicidal rate of 5% or less (almost no effect))
Redroot pigweed [25]
  Herbicidal effect by foliage application, N: redroot pigweed: 1 (Herbicidal rate of 5% or more and less than 20%)
Southern crabgrass [19]; [28]
  Herbicidal effect by soil treatment, F: southern crabgrass: 0 (Herbicidal rate of 5% or less (almost no effect))
Barnyard grass [20]; [27]
  Herbicidal effect by foliage application, H: barnyard grass: 4 (Herbicidal rate of 70% or more and less than 90%)
Lambsquarters [21]; [28]
  Herbicidal effect by soil treatment, O: lambsquarters: 0 (Herbicidal rate of 5% or less (almost no effect))
Southern crabgrass [22]; [27]
  Herbicidal effect by foliage application, F: southern crabgrass: 3 (Herbicidal rate of 40% or more and less than 70%)

Source: patent publication US20230085307A1, “PYRIDAZINONE COMPOUND AND HERBICIDE” (NISSAN CHEMICAL CORPORATION, priority 2019, published 2023)
